Results as given in patent publication US9550775B2, “Substituted triazolopyridines and methods of use thereof” (GENENTECH, INC., priority 2013, dated 2017).
pIC50: −log10 of the molar value.

Target: hNav1.7 (Homo sapiens (Human), UniProt Q15858)
Test: Tritiated sulfonamide competitive binding to membranes from cells expressing hNav1.7 and the β1 subunit;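 note: displacement of the tritiated ligand from recombinant cell membranes, read by liquid scintillation counting of filter-bound radioactivity, nonspecific binding defined with 1 µM unlabelled compound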
Details: 100 pM [3H]compound, 18 h, room temperature; inactivated state of NaV1.7 membrane binding; read-out: NaV1.7 Ligand Binding Assay (IC50)

hNav1.7, sequence (Q15858 other isoform, or with tags, fused parts or gaps): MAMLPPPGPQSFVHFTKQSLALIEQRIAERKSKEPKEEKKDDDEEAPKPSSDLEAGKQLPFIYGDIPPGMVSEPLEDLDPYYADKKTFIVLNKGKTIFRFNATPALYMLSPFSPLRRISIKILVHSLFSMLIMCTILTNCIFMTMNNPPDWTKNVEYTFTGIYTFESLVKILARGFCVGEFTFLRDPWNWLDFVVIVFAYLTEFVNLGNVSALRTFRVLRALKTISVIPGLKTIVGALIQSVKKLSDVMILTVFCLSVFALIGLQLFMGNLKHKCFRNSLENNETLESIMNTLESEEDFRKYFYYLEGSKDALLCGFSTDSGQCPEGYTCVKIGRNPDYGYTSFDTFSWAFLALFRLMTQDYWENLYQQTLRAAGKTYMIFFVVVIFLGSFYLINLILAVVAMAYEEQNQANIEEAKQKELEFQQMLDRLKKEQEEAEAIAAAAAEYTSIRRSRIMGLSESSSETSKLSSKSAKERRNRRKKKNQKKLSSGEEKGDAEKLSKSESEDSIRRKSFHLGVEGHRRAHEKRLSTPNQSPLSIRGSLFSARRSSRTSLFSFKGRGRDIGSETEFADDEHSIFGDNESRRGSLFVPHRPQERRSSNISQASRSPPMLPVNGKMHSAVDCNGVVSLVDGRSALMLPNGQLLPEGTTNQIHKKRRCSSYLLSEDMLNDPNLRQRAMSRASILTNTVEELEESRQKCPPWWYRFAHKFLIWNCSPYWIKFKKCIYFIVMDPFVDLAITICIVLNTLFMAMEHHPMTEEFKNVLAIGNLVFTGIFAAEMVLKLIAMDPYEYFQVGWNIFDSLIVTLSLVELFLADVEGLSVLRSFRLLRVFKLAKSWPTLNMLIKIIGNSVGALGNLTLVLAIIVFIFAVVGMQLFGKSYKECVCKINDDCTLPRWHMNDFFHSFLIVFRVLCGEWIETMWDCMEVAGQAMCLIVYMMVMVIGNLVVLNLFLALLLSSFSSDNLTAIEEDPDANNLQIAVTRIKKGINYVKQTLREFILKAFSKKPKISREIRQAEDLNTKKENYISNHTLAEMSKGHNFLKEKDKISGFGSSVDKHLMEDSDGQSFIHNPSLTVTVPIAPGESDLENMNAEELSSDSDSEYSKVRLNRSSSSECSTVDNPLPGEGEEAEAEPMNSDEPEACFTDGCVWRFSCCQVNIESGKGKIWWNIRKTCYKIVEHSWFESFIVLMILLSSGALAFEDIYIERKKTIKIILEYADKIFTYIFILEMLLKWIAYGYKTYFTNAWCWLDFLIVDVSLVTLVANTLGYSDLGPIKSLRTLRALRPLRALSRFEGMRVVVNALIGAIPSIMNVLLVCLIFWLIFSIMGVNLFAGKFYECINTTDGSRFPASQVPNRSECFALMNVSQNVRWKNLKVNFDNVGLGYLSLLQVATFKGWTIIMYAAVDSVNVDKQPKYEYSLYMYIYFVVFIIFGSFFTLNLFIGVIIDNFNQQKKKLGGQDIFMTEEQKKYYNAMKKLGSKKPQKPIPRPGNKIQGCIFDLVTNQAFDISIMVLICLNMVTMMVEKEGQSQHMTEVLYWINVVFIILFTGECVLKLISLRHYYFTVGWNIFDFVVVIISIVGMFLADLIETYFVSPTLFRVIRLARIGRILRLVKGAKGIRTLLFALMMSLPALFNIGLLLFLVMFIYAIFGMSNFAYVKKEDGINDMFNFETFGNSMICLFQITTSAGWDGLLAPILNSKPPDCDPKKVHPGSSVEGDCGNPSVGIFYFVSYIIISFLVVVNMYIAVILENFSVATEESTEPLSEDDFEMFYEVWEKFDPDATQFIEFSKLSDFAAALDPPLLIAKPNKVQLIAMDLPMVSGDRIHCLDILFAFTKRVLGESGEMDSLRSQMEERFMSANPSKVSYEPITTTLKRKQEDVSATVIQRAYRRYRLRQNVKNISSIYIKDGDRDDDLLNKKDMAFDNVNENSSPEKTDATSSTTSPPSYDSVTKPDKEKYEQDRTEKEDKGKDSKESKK
hNav1.7, sequence (Q07699 19-218 partner): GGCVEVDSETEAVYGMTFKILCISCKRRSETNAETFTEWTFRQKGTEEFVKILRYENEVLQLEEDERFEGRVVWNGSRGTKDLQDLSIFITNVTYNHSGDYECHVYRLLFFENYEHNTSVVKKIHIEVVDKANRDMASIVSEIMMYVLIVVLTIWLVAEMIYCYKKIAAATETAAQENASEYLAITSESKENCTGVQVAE

Row | SMILES | pIC50
1 | C[C@@H](c1cc(Cl)cc(Cl)c1)N1CCC(C)(COc2cc3nnc(NS(C)(=O)=O)n3cc2C2CC2)CC1 [Example 117, (S)—N-(6-cyclopropyl-7-((1-(1-(3,5-dichlorophenyl)ethyl)-4-methylpiperidin-4-yl)methoxy)-[1,2,4]triazolo[4,3-a]pyridin-3-yl)methanesulfonamide] | 7.89
2 | O=S(=O)(Nc1nnc2cc(COc3ccc(Cl)c(Cl)c3)c(C3CC3)cn12)C1CC1 [Example 39] | 8.17
3 | CS(=O)(=O)Nc1nnc2cc(O[C@@H]3CCCN(Cc4ccc(F)cc4Cl)C3)c(C3CC3)cn12 [Example 112, (R)—N-(7-((1-(2-chloro-4-fluorobenzyl)piperidin-3-yl)oxy)-6-cyclopropyl-[1,2,4]triazolo[4,3-a]pyridin-3-yl)methanesulfonamide] | 6.89
4 | CS(=O)(=O)Nc1nnc2cc(OC[C@@H]3C[C@H]4CC[C@@H](C3)N4C(c3ccccc3)c3ccccc3)c(C3CC3)cn12 [Example 123, N-(7-(((1R,3S,5S)-8-benzhydryl-8-azabicyclo[3.2.1]octan-3-yl)methoxy)-6-cyclopropyl-[1,2,4]triazolo[4,3-a]pyridin-3-yl)methanesulfonamide] | 7.77
5 | O=S(=O)(Nc1nnc2cc(OC3CCC4(CCCCC4)CC3)c(C3CC3)cn12)C1CC1 [Example 90, N-(6-cyclopropyl-7-(spiro[5.5]undecan-3-yloxy)-[1,2,4]triazolo[4,3-a]pyridin-3-yl)cyclopropanesulfonamide] | 7.29
6 | CC1(S(=O)(=O)Nc2nnc3cc(COc4cc(Cl)cc(OC(F)(F)F)c4)c(C4CC4)cn23)CC1 [Example 49, N-(7-((3-chloro-5-(trifluoromethoxy)phenoxy)methyl)-6-cyclopropyl-[1,2,4]triazolo[4,3-a]pyridin-3-yl)-1-methylcyclopropane-1-sulfonamide] | 8.40
7 | CC1(COc2cc3nnc(NS(=O)(=O)C4CC4)n3cc2C2CC2)CCN(Cc2cc(Cl)cc(Cl)c2)CC1 [Example 111, N-(6-cyclopropyl-7-((1-(3,5-dichlorobenzyl)-4-methylpiperidin-4-yl)methoxy)-[1,2,4]triazolo[4,3-a]pyridin-3-yl)cyclopropanesulfonamide] | 8.10
8 | O=S(=O)(Nc1nnc2cc(CN3CCC(Oc4cc(Cl)cc(Cl)c4)CC3)c(C3CC3)cn12)C1CC1 [Example 124, N-(6-cyclopropyl-7-((4-(3,5-dichlorophenoxy)piperidin-1-yl)methyl)-[1,2,4]triazolo[4,3-a]pyridin-3-yl)cyclopropanesulfonamide] | 6.49
9 | CS(=O)(=O)Nc1nnc2cc(OC[C@H]3CC[C@H](C)CC3)c(C3CC3)cn12 [Example 88] | 7.74
10 | CS(=O)(=O)Nc1nnc2cc(OC[C@H]3CC[C@H](C)CC3)c(Br)cn12 [Example 87] | 7.06
11 | CS(=O)(=O)Nc1nnc2cc(COc3cc(Cl)cc(OC(F)(F)F)c3)c(C3CC3)cn12 [Example 98, N-(7-((3-chloro-5-(trifluoromethoxy)phenoxy)methyl)-6-cyclopropyl-[1,2,4]triazolo[4,3-a]pyridin-3-yl)methanesulfonamide] | 8.52
12 | C[C@@H](c1cc(Cl)cc(Cl)c1)N1CCC(COc2cc3nnc(NS(=O)(=O)C4CC4)n3cc2C2CC2)CC1 [Example 121] | 7.92
13 | CS(=O)(=O)Nc1nnc2cc(COc3cc(Cl)cc(OC(F)(F)F)c3)c(C3CC3)cn12 [Example 43, N-(7-((3-chloro-5-(trifluoromethoxy)phenoxy)methyl)-6-cyclopropyl-[1,2,4]triazolo[4,3-a]pyridin-3-yl)methanesulfonamide] | 8.60
14 | O=S(=O)(Nc1nnc2cc(COc3ccc(Cl)c(Cl)c3)c(C3CC3)cn12)C1CC1 [Example 94, N-(6-cyclopropyl-7-((3,4-dichlorophenoxy)methyl)-[1,2,4]-triazolo[4,3-a]pyridin-3-yl)cyclopropanesulfonamide] | 8.15
15 | CC1(COc2cc3nnc(NS(C)(=O)=O)n3cc2C2CC2)CCN(C(c2ccccc2)c2ccccc2)CC1 [Example 116, N-(7-((1-benzhydryl-4-methylpiperidin-4-yl)methoxy)-6-cyclopropyl-[1,2,4]triazolo[4,3-a]pyridin-3-yl)methanesulfonamide] | 7.80
16 | CC1(C)C2CCC1(C)[C@H](Oc1cc3nnc(NS(C)(=O)=O)n3cc1C1CC1)C2 (stereo in doubt) [Example 31, N-(6-cyclopropyl-7-(((1S,2R,4R)-1,7,7-trimethylbicyclo-[2.2.1]heptan-2-yl)oxy)-[1,2,4]triazolo[4,3-a]pyridin-3-yl)methanesulfonamide] | 6.59
17 | O=S(=O)(Nc1nnc2cc(OC3CCC4(CCCCC4)CC3)c(C3CC3)cn12)C1CC1 [Example 35, N-(6-cyclopropyl-7-(spiro[5.5]undecan-3-yloxy)-[1,2,4]triazolo-[4,3-a]pyridin-3-yl)cyclopropanesulfonamide] | 7.29
18 | Cc1cc(Cl)cc(OCc2cc3nnc(NS(=O)(=O)C4CC4)n3cc2C2CC2)c1 [Example 48, N-(7-((3-chloro-5-methylphenoxy)methyl)-6-cyclopropyl-[1,2,4]triazolo[4,3-a]pyridin-3-yl)cyclopropanesulfonamide] | 8.20
19 | CS(=O)(=O)Nc1nnc2cc(OC[C@H]3CC[C@H](C(F)(F)F)CC3)c(C3CC3)cn12 [Example 68, N-(6-cyclopropyl-7-(((trans)-4-(trifluoromethyl)cyclohexyl)methoxy)-[1,2,4]triazolo[4,3-a]pyridin-3-yl)methanesulfonamide] | 7.64

Further lines, results first:

Row | pIC50 | SMILES
20 | 8.14 | CC1(S(=O)(=O)Nc2nnc3cc(OCC45CC6CC(CC(C6)C4)C5)c(C4CC4)cn23)CC1 [Example 19, N-(7-((3r,5r,7r)-adamantan-1-ylmethoxy)-6-cyclopropyl-[1,2,4]triazolo[4,3-a]pyridin-3-yl)-1-methylcyclopropane-1-sulfonamide]
21 | 8.30 | CS(=O)(=O)Nc1nnc2cc(OCC3CC4C5CCC(C5)C4C3)c(C3CC3)cn12 [Example 80, N-(6-cyclopropyl-7-(((2s,3aR,4S,7R,7aS)-octahydro-1H-4,7-methanoinden-2-yl)methoxy)-[1,2,4]triazolo[4,3-a]pyridin-3-yl)methanesulfonamide]
22 | 7.35 | C=Cc1cn2c(NS(C)(=O)=O)nnc2cc1OCC12CC3CC(CC(C3)C1)C2 [Example 128, N-(7-(adamantan-1-ylmethoxy)-6-vinyl-[1,2,4]triazolo[4,3-a]-pyridin-3-yl)methanesulfonamide]
23 | 8.59 | CC1(C)[C@H]2CC[C@H](COc3cc4nnc(NS(C)(=O)=O)n4cc3C3CC3)[C@@H]1C2 [Example 28, N-(6-cyclopropyl-7-(((1S,2S,5S)-6,6-dimethylbicyclo[3.1.1]heptan-2-yl)methoxy)-[1,2,4]triazolo[4,3-a]pyridin-3-yl)methanesulfonamide]
24 | 8.10 | CC1(COc2cc3nnc(NS(=O)(=O)C4CC4)n3cc2C2CC2)CCC2(CC1)CC2 [Example 114, N-(6-cyclopropyl-7-((6-methylspiro[2.5]octan-6-yl)methoxy)-[1,2,4]triazolo[4,3-a]pyridin-3-yl)cyclopropanesulfonamide]
25 | 7.51 | CCc1cn2c(NS(=O)(=O)N3CCC3)nnc2cc1OCC12CC3CC(CC(C3)C1)C2 [Example 126, N-(7-(adamantan-1-ylmethoxy)-6-ethyl-[1,2,4]triazolo[4,3-a]pyridin-3-yl)azetidine-1-sulfonamide]
26 | 8.05 | CS(=O)(=O)Nc1nnc2cc(OCCC34CC5CC(CC(C5)C3)C4)c(C3CC3)cn12 [Example 76, N-(7-(2-43r,5r,7r)-adamantan-1-yl)ethoxy)-6-cyclopropyl-[1,2,4]triazolo[4,3-a]pyridin-3-yl)methanesulfonamide]
27 | 8.28 | CS(=O)(=O)Nc1nnc2cc(OCC3CC4C5CCC(C5)C4C3)c(C3CC3)cn12 (centres unmarked) [Example 25]
28 | 7.29 | C=C(C)c1cn2c(NS(C)(=O)=O)nnc2cc1OCC12CC3CC(CC(C3)C1)C2 [Example 8, N-(7-(adamantan-1-ylmethoxy)-6-(prop-1-en-2-yl)-[1,2,4]-triazolo[4,3-a]pyridin-3-yl)methanesulfonamide]
29 | 8.70 | CC12CC3(C)CC(C)(C1)CC(COc1cc4nnc(NS(C)(=O)=O)n4cc1C1CC1)(C2)C3 [Example 122, N-(6-cyclopropyl-7-((3,5,7-trimethyladamantan-1-yl)methoxy)-[1,2,4]triazolo[4,3-a]pyridin-3-yl)methanesulfonamide]
30 | 6.85 | CCc1cn2c(NS(=O)(=O)N3CC(F)C3)nnc2cc1OCC12CC3CC(CC(C3)C1)C2 [Example 70, N-(7-((3r,5r,7r)-adamantan-1-ylmethoxy)-6-ethyl-[1,2,4]triazolo[4,3-a]pyridin-3-yl)-3-fluoroazetidine-1-sulfonamide]
31 | 8.37 | CCS(=O)(=O)Nc1nnc2cc(OCC34CC5CC(CC(C5)C3)C4)c(C3CC3)cn12 [Example 17, N-(7-((3r,5r,7r)-adamantan-1-ylmethoxy)-6-cyclopropyl-[1,2,4]triazolo[4,3-a]pyridin-3-yl)ethanesulfonamide]
32 | 8.52 | CC1(C)[C@H]2CC[C@H](COc3cc4nnc(NS(C)(=O)=O)n4cc3C3CC3)[C@@H]1C2 [Example 83]
33 | 7.19 | C=Cc1cn2c(NS(C)(=O)=O)nnc2cc1OCC1(C)CCCCC1 [Example 62, N-(7-((1-methylcyclohexyl)methoxy)-6-vinyl-[1,2,4]triazolo-[4,3-a]pyridin-3-yl)methanesulfonamide]
34 | 8.15 | O=S(=O)(Nc1nnc2cc(OCCC34CC5CC(CC(C5)C3)C4)c(C3CC3)cn12)C1CC1 [Example 77, N-(7-(2-((3r,5r,7r)-adamantan-1-yl)ethoxy)-6-cyclopropyl-[1,2,4]triazolo[4,3-a]pyridin-3-yl)cyclopropanesulfonamide]
35 | 8.05 | O=S(=O)(Nc1nnc2cc(OCC34CC5CC(CC(C5)C3)C4)c(C3CC3)cn12)N1CCC1 [Example 127, N-(7-(adamantan-1-ylmethoxy)-6-cyclopropyl-[1,2,4]triazolo[4,3-a]pyridin-3-yl)azetidine-1-sulfonamide]
